This passage reports GI50 and TGI results from PubChem BioAssay (NCI).

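Following 48 hours of exposure in 96-well plates, responses at five concentrations were used to interpolate endpoints linearly. The concentration for 50% growth inhibition is given as GI50. At the TGI there is no net growth.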

Among the test systems are MALME-3M melanoma; KM12 colon; SF-268 CNS; MDA-MB-435; HCC-2998 colon; NCI/ADR-RES ovarian; MDA-MB-231 breast; HT29 colon; NCI-H226 lung; RXF 393 renal.
Assay in all cases: NCI-60 cell line screen, 48 h

In the case of `Cc1c[n+](Cc2ccc3ccccc3c2)cn1Cc1ccc2ccccc2c1`, the GI50 in the assay on MALME-3M melanoma is 1.29 µM; in the assay with KM12 colon, 1.65 µM; with SF-268 CNS, 1.36 µM; in the assay with MDA-MB-435, 1.28 µM; in the assay on HCC-2998 colon, 1.34 µM; with NCI/ADR-RES ovarian, above 100 µM. Further, the GI50 with MDA-MB-231 breast was 1.54 µM; in the assay on HT29 colon it was 1.07 µM; in the assay on NCI-H226 lung, 2.12 µM; in the assay with RXF 393 renal, 1.62 µM. The TGI was 3.02 µM with MALME-3M melanoma; 3.1 µM in the assay on KM12 colon; 2.88 µM with SF-268 CNS; 3.03 µM in the assay with MDA-MB-435; 2.83 µM in the assay with HCC-2998 colon; above 100 µM in the assay on NCI/ADR-RES ovarian. Moreover, the TGI in the assay with MDA-MB-231 breast is 3.24 µM; in the assay on HT29 colon, 2.53 µM; with NCI-H226 lung, 5.87 µM; with RXF 393 renal it was 3.47 µM.

Turning to `CCOC(=O)N1CCN(C(=O)c2ccc(C(F)(F)F)nc2Nc2cc(Cl)ccc2C)CC1`, the GI50 in the assay on MALME-3M melanoma is 12 µM; with KM12 colon, 11.2 µM; in the assay on SF-268 CNS it was 74.8 µM; with MDA-MB-435 it was 5.86 µM; in the assay on HCC-2998 colon, 11.6 µM; in the assay on NCI/ADR-RES ovarian, 15.4 µM. Besides, the GI50 was 5.22 µM with MDA-MB-231 breast, 13.2 µM with HT29 colon, 20.5 µM with NCI-H226 lung and 14 µM in the assay with RXF 393 renal. Also, the TGI in the assay on MALME-3M melanoma is 41 µM; with KM12 colon it was 31.2 µM; with SF-268 CNS, above 100 µM; in the assay on MDA-MB-435, 26.7 µM; in the assay on HCC-2998 colon it was 30.1 µM; in the assay with NCI/ADR-RES ovarian it was above 100 µM. The TGI amounted to 21.9 µM in the assay with MDA-MB-231 breast, 34.8 µM in the assay with HT29 colon, 68.6 µM in the assay with NCI-H226 lung and 65.2 µM with RXF 393 renal.

As to `Fc1ccc(Nc2cc(-n3nnc4ccccc43)nc3ccccc23)cc1`, the GI50 is 23.1 µM with MALME-3M melanoma; above 100 µM with KM12 colon; above 40.1 µM with SF-268 CNS; above 50.7 µM with MDA-MB-435; above 100 µM with HCC-2998 colon; 56.3 µM with NCI/ADR-RES ovarian. Further, the GI50 with MDA-MB-231 breast is 8.44 µM; in the assay on HT29 colon, 43.9 µM; in the assay on NCI-H226 lung it was 19 µM; in the assay with RXF 393 renal, 0.781 µM. The TGI in the assay with MALME-3M melanoma was above 70.6 µM; with KM12 colon it was above 100 µM; with SF-268 CNS, above 66.3 µM; in the assay on MDA-MB-435, above 100 µM; in the assay on HCC-2998 colon, above 100 µM; in the assay on NCI/ADR-RES ovarian, above 100 µM. Besides, the TGI with MDA-MB-231 breast is above 49.2 µM; in the assay on HT29 colon, above 100 µM; in the assay with NCI-H226 lung it was above 69 µM; with RXF 393 renal it was 27.6 µM.

In the case of `COC(=O)[C@@H](NC(=O)[C@@H](OC)[C@@H]1Cc2cc3cc(OC4CC(OC5CC(O)C(O)C(C)O5)C(O)C(C)O4)c(C)c(O)c3c(O)c2C(=O)[C@H]1OC1CC(OC2CC(OC3CC(C)(O)C(O)C(C)O3)C(O)C(C)O2)C(O)C(C)O1)C(C)C` (stereo not given in full), the GI50 with MALME-3M melanoma was 0.0763 µM; in the assay on KM12 colon it was 0.154 µM; with SF-268 CNS, 0.172 µM; in the assay with MDA-MB-435 it was 0.13 µM; with HCC-2998 colon, 0.206 µM; in the assay with NCI/ADR-RES ovarian, 23.7 µM. Also, the GI50 with MDA-MB-231 breast was 0.192 µM; in the assay on HT29 colon, 0.129 µM; in the assay on NCI-H226 lung, 0.109 µM; in the assay on RXF 393 renal it was 0.0822 µM. Moreover, the TGI was 1.43 µM with MALME-3M melanoma; above 32.5 µM in the assay with KM12 colon; above 32.5 µM in the assay with SF-268 CNS; above 32.5 µM in the assay on MDA-MB-435; above 32.5 µM in the assay on HCC-2998 colon; above 32.5 µM in the assay on NCI/ADR-RES ovarian. Moreover, the TGI in the assay on MDA-MB-231 breast was 19.9 µM; in the assay on HT29 colon, above 32.5 µM; in the assay with NCI-H226 lung, 0.963 µM; in the assay with RXF 393 renal, 0.427 µM.

As for `CC(=O)O[C@@H]1C[C@]2(C(C)C)O[C@@]1(C)[C@@H]1CCC(C)=C1[C@@H]2OC(=O)/C=C/c1ccccc1`, the GI50 in the assay on MALME-3M melanoma is 39.2 µM; with KM12 colon, 40 µM; in the assay with SF-268 CNS, 35.1 µM; in the assay on MDA-MB-435, 39.1 µM; in the assay on HCC-2998 colon it was 68.1 µM; in the assay on NCI/ADR-RES ovarian, 23.1 µM. Besides, the GI50 in the assay with MDA-MB-231 breast was 49.3 µM; with HT29 colon, 30.6 µM; in the assay on NCI-H226 lung, 29.1 µM; in the assay with RXF 393 renal, 8.83 µM. The TGI in the assay on MALME-3M melanoma, in the assay with KM12 colon, in the assay with SF-268 CNS, with MDA-MB-435, in the assay with HCC-2998 colon and in the assay on NCI/ADR-RES ovarian was above 100 µM in each case. The TGI is above 100 µM in the assay on MDA-MB-231 breast, above 100 µM with HT29 colon, above 100 µM in the assay on NCI-H226 lung and 65.9 µM in the assay with RXF 393 renal.

In the case of `O=C(O)c1ccccc1-c1ccccc1C(=O)Nc1ccc2c(c1)Cc1cc(F)ccc1-2`, the TGI was 88.7 µM in the assay on MALME-3M melanoma; above 100 µM in the assay with KM12 colon; above 100 µM with SF-268 CNS; above 100 µM in the assay with MDA-MB-435; 33.8 µM in the assay on HCC-2998 colon; above 100 µM in the assay on NCI/ADR-RES ovarian. Further, the TGI with MDA-MB-231 breast is 83.2 µM; in the assay with HT29 colon, above 100 µM; in the assay on NCI-H226 lung, above 100 µM; in the assay with RXF 393 renal, above 100 µM.

On to `CN(C)Cc1c[nH]c2c1C(=O)c1c(c(O)c3ccccc3c1O)C2=O`, for which the GI50 with MALME-3M melanoma is 9.61 µM; in the assay with KM12 colon it was 4.66 µM; with SF-268 CNS, 8.24 µM; in the assay on MDA-MB-435, 10.6 µM; with HCC-2998 colon, 6.61 µM; in the assay with NCI/ADR-RES ovarian, 4.29 µM. Further, the GI50 in the assay on MDA-MB-231 breast is 11.6 µM; with HT29 colon it was 16.7 µM; in the assay with NCI-H226 lung it was 17 µM; in the assay with RXF 393 renal, 9.48 µM. Besides, the TGI in the assay on MALME-3M melanoma came to 23.3 µM; with KM12 colon, 20.9 µM; in the assay with SF-268 CNS, 23.9 µM; in the assay on MDA-MB-435, 23 µM; with HCC-2998 colon, 21.9 µM; in the assay with NCI/ADR-RES ovarian, 22.8 µM. The TGI with MDA-MB-231 breast was 25 µM; with HT29 colon it was above 100 µM; with NCI-H226 lung, 33.3 µM; in the assay on RXF 393 renal it was 25.5 µM.
